Laboratory results published in paper PMC9227305, “Photoinduced Synthesis of Methylated Marine Cyclopeptide Galaxamide Analogs with Isoindolinone as Anticancer Agents” (Marine Drugs, 2022).
“And” between values parts separate entries of the source, which are not always exact repeats. Equal values may be shown once. Read-outs that look alike come from different tables or passages of the source. *1 amine or outer side, *2 acyl side, *3 side chain or, on linkers, in order; H or OH if unused. Where a SMILES comes first, the peptide text is derived from it. [ ]: non-standard residue; d: D form. X1 = O=C1c2ccccc2[C@@](O)(CN(Cc2ccccc2)[*:1])N1CC(=O)[*:2]; X2 = O=C1c2ccccc2[C@](O)(CN(Cc2ccccc2)[*:1])N1CC(=O)[*:2]; NMeL = CN[C@@H](CC(C)C)C(=O)O; dNMeL = CN[C@H](CC(C)C)C(=O)O

Experiments:
L929 cells = experiment: cells
Excerpt: (§1) The antitumor activity of the prepared cyclic peptides against human hepatocellular carcinoma cells (HepG-2), human cervical cancer cell lines (HeLa) and human breast cancer cells (MDA-MB-231) was examined by MMT assay, and the mouse fibroblast L929 cells were used as the model cells to evaluate the toxicity of cyclopeptides to normal cell lines. Due to the absence of an authentic standard, taxol was chosen as a control because it is a widely used chemotherapeutic drug for the treatment of various cancers, including liver cancer.
(§2) Samples were dissolved in DMSO and diluted into different concentrations ([…], 18.75, 25, 37.5, 50, 75, 100 and 250 μM) and stored at 4 °C. Cells in the logarithmic growth phase were digested with trypsin and then seeded in 96-well plates at a density of 2 × 10^4 cells/well in 100 μL of culture medium. The cells were treated with different concentrations of the tested compound, and a blank control group without the drug was also set up. Six wells were repeated for each dose. After 48 h of co-incubation, MTT solution (100 μL, 0.5 mg/mL) was added, followed by incubation for another 4 h. After discarding the supernatant, 100 μL of DMSO was added per well, and the absorbance (OD) values were measured at 490 nm using an enzyme marker. Cell viability was calculated by the formula: Cell viability (%) = As/Ab × 100% (where As is the absorbance value of the experimental group and Ab is the absorbance value of the blank group). The obtained data were processed using SPSS19 software to obtain IC50 values.

HepG-2 cells = experiment: cells
Excerpt: as §1, §2

[1] = other bond; 21-membered ring; hv (450 W Hg lamp, Pyrex), SET photocyclization
[2] = test system: renal carcinoma GRC-1 cell lines; parameters: method as in PMID 18816120; details: cited from earlier work
[3] = test system: human hepatocellular carcinoma HepG-2 cell lines; parameters: method as in PMID 18816120; details: cited from earlier work
MDA-MB-231 cells = format: cell-based, human; details: 48 h
Excerpt: as §1, §2

Compound	IC50 (MDA-MB-231 cells) [µM]	IC50 (HepG-2 cells; 48 h) [µM]	ring closure, isolated yield [1]	IC50 (L929 cells; 48 h) [µM]	other results
CC(=O)O[C@H]1C(=O)[C@@]2(C)[C@H]([C@H](OC(=O)c3ccccc3)[C@]3(O)C[C@H](OC(=O)[C@H](O)[C@@H](NC(=O)c4ccccc4)c4ccccc4)C(C)=C1C3(C)C)[C@]1(OC(C)=O)CO[C@@H]1C[C@@H]2O [Taxol, paclitaxel, reference compound]					IC50 (L929 cells; Mus musculus, L929, 48 h, read-out: IC50 L929): 141 ± 9.3 µM; IC50 (HepG-2 cells; Homo sapiens, HepG2, 48 h, read-out: IC50 HepG-2): 40.9 ± 5.2 µM
3-Hydroxy-isoindolinone-cyclo-Gly-Leu-N-Me-Leu-Leu-N-Me-Leu-Leu			48% and 43% and 45%		
cyclo-(L-Leu-L-N-Me-Leu-L-Leu-L-Leu-L-N-Me-Leu-L-Leu) [galaxamide]					in vitro antitumor activity [2]: strong; in vitro antitumor activity [3]: strong
3-Hydroxy-isoindolinone-cyclo-Gly-Leu-Leu-Leu-N-Me-Leu-Leu			24% and 28%		
CC(C)C[C@H]1NC(=O)[C@H](CC(C)C)N(C)C(=O)[C@@H](CC(C)C)NC(=O)[C@H](CC(C)C)N(C)C(=O)[C@@H](CC(C)C)NC(=O)CN2C(=O)c3ccccc3[C@]2(O)CN(Cc2ccccc2)C1=O [Compound 2, 3-Hydroxy-isoindolinone-cyclo-Gly-Leu-N-Me-Leu-Leu-N-Me-Leu-Leu] (cyclo([NMeL][dL][NMeL][dL][X2][dL]))	67.6 ± 3.3	72.1 ± 5.8		364 ± 15.6	
3-Hydroxy-isoindolinone-cyclo-(Gly-Leu-N-Me-Leu-Leu-N-Me-Leu-Leu)			51%		
3-Hydroxy-isoindolinone-cyclo-Gly-Leu-N-Me-Leu-Leu-Leu-Leu			25% and 23%		
CC(C)C[C@@H]1C(=O)N[C@H](CC(C)C)C(=O)N(C)[C@H](CC(C)C)C(=O)N[C@H](CC(C)C)C(=O)N(Cc2ccccc2)C[C@@]2(O)c3ccccc3C(=O)N2CC(=O)N[C@H](CC(C)C)C(=O)N1C [Compound 1, 3-Hydroxy-isoindolinone-cyclo-(Gly-Leu-N-Me-Leu-Leu-N-Me-Leu-Leu)] (cyclo([dNMeL][dL][dNMeL][dL][X2][dL]))	59.3 ± 2.3	38.4 ± 2.2		> 400	

More lines, main results first:

IC50 (MDA-MB-231 cells) [µM]	IC50 (HepG-2 cells; 48 h) [µM]	Compound	ring closure, isolated yield [1]	IC50 (L929 cells; 48 h) [µM]	other results
67.6 ± 2.3	36.1 ± 2.2	CC(C)C[C@@H]1C(=O)N[C@H](CC(C)C)C(=O)N[C@H](CC(C)C)C(=O)N[C@H](CC(C)C)C(=O)N(Cc2ccccc2)C[C@]2(O)c3ccccc3C(=O)N2CC(=O)N[C@H](CC(C)C)C(=O)N1C [Compound 6, 3-Hydroxy-isoindolinone-cyclo-Gly-Leu-N-Me-Leu-Leu-Leu-Leu] (cyclo([dL][dL][X1][dL][dNMeL][dL]))		120 ± 5.3	
95.3 ± 8.6	81 ± 4.29	CC(C)C[C@@H]1NC(=O)[C@H](CC(C)C)N(C)C(=O)[C@H](CC(C)C)NC(=O)[C@H](CC(C)C)N(C)C(=O)[C@H](CC(C)C)NC(=O)CN2C(=O)c3ccccc3[C@@]2(O)CN(Cc2ccccc2)C1=O [Compound 4, 3-Hydroxy-isoindolinone-cyclo-Gly-Leu-N-Me-Leu-Leu-N-Me-Leu-Leu] (cyclo([NMeL]L[NMeL]L[X1]L))		310 ± 20.1	
112 ± 9	30.4 ± 1.6	CC(C)C[C@@H]1NC(=O)[C@H](CC(C)C)NC(=O)[C@H](CC(C)C)N(C)C(=O)[C@H](CC(C)C)NC(=O)CN2C(=O)c3ccccc3[C@@]2(O)CN(Cc2ccccc2)C(=O)[C@H](CC(C)C)NC1=O [Compound 7, 3-Hydroxy-isoindolinone-cyclo-Gly-Leu-Leu-Leu-N-Me-Leu-Leu] (cyclo(LL[X1]L[NMeL]L))		> 400	
60.8 ± 8.2	28.2 ± 6.2	CC(C)C[C@@H]1C(=O)N[C@H](CC(C)C)C(=O)N[C@H](CC(C)C)C(=O)N[C@H](CC(C)C)C(=O)N(Cc2ccccc2)C[C@]2(O)c3ccccc3C(=O)N2CC(=O)N[C@H](CC(C)C)C(=O)N1C [Compound 5, 3-Hydroxy-isoindolinone-cyclo-Gly-Leu-Leu-Leu-N-Me-Leu-Leu] (cyclo([dL][dL][X1][dL][dNMeL][dL]))		153 ± 10.7	
73.2 ± 2.8	90.9 ± 7.69	CC(C)C[C@@H]1NC(=O)[C@@H](CC(C)C)N(C)C(=O)[C@H](CC(C)C)NC(=O)[C@@H](CC(C)C)N(C)C(=O)[C@H](CC(C)C)NC(=O)CN2C(=O)c3ccccc3[C@]2(O)CN(Cc2ccccc2)C1=O [Compound 3, 3-Hydroxy-isoindolinone-cyclo-Gly-Leu-N-Me-Leu-Leu-N-Me-Leu-Leu] (cyclo([dNMeL]L[dNMeL]L[X2]L))		> 400	
